Values joined by “and” are separate entries in the source; they are usually repeats but may differ in a detail not shown here. Equal values may be shown once. ± gives the expanded uncertainty stated by the source.
Assay: molar heat capacity at constant pressure
Conditions: 101.33 kPa, Large sample (1 g) DSC

SMILES	molar heat capacity at constant pressure (290 K, Liquid)	molar heat capacity at constant pressure (295 K, Liquid)	molar heat capacity at constant pressure (300 K, Liquid)	molar heat capacity at constant pressure (305 K, Liquid)	molar heat capacity at constant pressure (310 K, Liquid)	molar heat capacity at constant pressure (315 K, Liquid)	molar heat capacity at constant pressure (320 K, Liquid)	molar heat capacity at constant pressure (325 K, Liquid)	molar heat capacity at constant pressure (330 K, Liquid)	molar heat capacity at constant pressure (335 K, Liquid)	molar heat capacity at constant pressure (340 K, Liquid) [J/K/mol]	molar heat capacity at constant pressure (345 K, Liquid)	molar heat capacity at constant pressure (350 K, Liquid)	molar heat capacity at constant pressure (355 K, Liquid) [J/K/mol]	also measured
OC1CCCC1 [cyclopentanol]	175.7 ± 3 J/K/mol and 175.9 ± 3 J/K/mol	180 ± 3.1 J/K/mol and 180.1 ± 3.1 J/K/mol	184.3 ± 3.2 J/K/mol and 184.4 ± 3.2 J/K/mol	188.6 ± 3.3 J/K/mol and 188.7 ± 3.3 J/K/mol	193 ± 3.3 J/K/mol and 193.1 ± 3.3 J/K/mol	197.4 ± 3.4 J/K/mol and 197.6 ± 3.4 J/K/mol	201.8 ± 3.5 J/K/mol and 202 ± 3.5 J/K/mol	206.2 ± 3.6 J/K/mol and 206.4 ± 3.6 J/K/mol	210.5 ± 3.6 J/K/mol and 210.7 ± 3.7 J/K/mol	215 ± 3.7 J/K/mol and 215.1 ± 3.7 J/K/mol	219.5 ± 3.8	223.8 ± 3.9 J/K/mol and 223.7 ± 3.9 J/K/mol	228.1 ± 4 J/K/mol and 228 ± 4 J/K/mol	232 ± 4	molar heat capacity at constant pressure (265.06 K, Liquid): 157.6 ± 2.7 J/K/mol; molar heat capacity at constant pressure (270 K, Liquid): 160.7 ± 2.8 J/K/mol; molar heat capacity at constant pressure (275 K, Liquid): 164.2 ± 2.8 J/K/mol; molar heat capacity at constant pressure (280 K, Liquid): 167.8 ± 2.9 J/K/mol and 167.9 ± 2.9 J/K/mol; molar heat capacity at constant pressure (285 K, Liquid): 171.6 ± 3 J/K/mol and 171.7 ± 3 J/K/mol; molar heat capacity at constant pressure (354.91 K, Liquid): 232 ± 4 J/K/mol; molar heat capacity at constant pressure (357.78 K, Liquid): 234.1 ± 4.1 J/K/mol
OC1CCCCCC1 [cycloheptanol]	240.6 ± 4.2 J/K/mol	246.5 ± 4.3 J/K/mol	252.3 ± 4.4 J/K/mol	258.1 ± 4.5 J/K/mol and 258.2 ± 4.5 J/K/mol	263.8 ± 4.6 J/K/mol	269.4 ± 4.7 J/K/mol and 269.5 ± 4.7 J/K/mol	274.8 ± 4.8 J/K/mol and 274.9 ± 4.8 J/K/mol	280.3 ± 4.9 J/K/mol and 280.2 ± 4.9 J/K/mol	285.3 ± 4.9 J/K/mol and 285.2 ± 4.9 J/K/mol	289.9 ± 5 J/K/mol and 290 ± 5 J/K/mol	294.4 ± 5.1	299.2 ± 5.2 J/K/mol	303.6 ± 5.3 J/K/mol	307.7 ± 5.3	molar heat capacity at constant pressure (260.59 K, Crystal): 195.3 ± 3.4 J/K/mol; molar heat capacity at constant pressure (260.73 K, Crystal): 195.4 ± 3.4 J/K/mol; molar heat capacity at constant pressure (262 K, Crystal): 196.4 ± 3.4 J/K/mol and 196.5 ± 3.4 J/K/mol; molar heat capacity at constant pressure (264 K, Crystal): 198 ± 3.4 J/K/mol and 198.1 ± 3.4 J/K/mol; molar heat capacity at constant pressure (266 K, Crystal): 199.8 ± 3.5 J/K/mol; molar heat capacity at constant pressure (268 K, Crystal): 201.8 ± 3.5 J/K/mol and 201.7 ± 3.5 J/K/mol; molar heat capacity at constant pressure (270 K, Crystal): 204 ± 3.5 J/K/mol; molar heat capacity at constant pressure (271.34 K, Crystal): 205.2 ± 3.6 J/K/mol; molar heat capacity at constant pressure (271.43 K, Crystal): 205.4 ± 3.6 J/K/mol; molar heat capacity at constant pressure (286.01 K, Liquid): 236.1 ± 4.1 J/K/mol; molar heat capacity at constant pressure (286.13 K, Liquid): 236.3 ± 4.1 J/K/mol; molar heat capacity at constant pressure (354.82 K, Liquid): 307.6 ± 5.3 J/K/mol; molar heat capacity at constant pressure (357.82 K, Liquid): 309.7 ± 5.4 J/K/mol

Reference: the NIST ThermoML archive (doi:10.1016/j.tca.2014.10.002)
